The values below come from ChEMBL document CHEMBL6120945, “Peptidomimetic Analogues Act as Effective Inhibitors against SARS-CoV-2 by Blocking the Function of Cathepsin L” (J Med Chem, 2024).

Data set [1] can be described thus: Inhibition of human recombinant Cathepsin L-like protease using Z-FR-AMC as substrate at 10 uM preincubated for 30 mins followed by substrate addition and measured after 1.5 hrs by […].
In data set [2] the test system is SARS-CoV-2. In kind it is functional, organism-based. Conditions: Severe acute respiratory syndrome coronavirus 2; Vero E6; time 12.0 hrs.
The next data set addresses Trypsin (Homo sapiens) (UniProt P07477+P07478+P35030). Nature of the data set: Inhibition of human trypsin at 10 uM relative to control. In kind it is protein assay.
For data set [3], the target named is Chymotrypsin (Homo sapiens) (UniProt Q99895+P17538+P40313+Q6GPI1). Nature of the data set: Inhibition of human Chymotrypsin at 10 uM relative to control. In kind it is protein assay.
Data set [4] addresses T1, Cathepsin B (Homo sapiens, UniProt P07858). Nature of the data set: Inhibition of Cathepsin B (unknown origin) at 10 uM relative to control.
Data set [5] has as its target T2, Cathepsin L2 (Homo sapiens) (UniProt O60911).
T2 sequence (whole entry): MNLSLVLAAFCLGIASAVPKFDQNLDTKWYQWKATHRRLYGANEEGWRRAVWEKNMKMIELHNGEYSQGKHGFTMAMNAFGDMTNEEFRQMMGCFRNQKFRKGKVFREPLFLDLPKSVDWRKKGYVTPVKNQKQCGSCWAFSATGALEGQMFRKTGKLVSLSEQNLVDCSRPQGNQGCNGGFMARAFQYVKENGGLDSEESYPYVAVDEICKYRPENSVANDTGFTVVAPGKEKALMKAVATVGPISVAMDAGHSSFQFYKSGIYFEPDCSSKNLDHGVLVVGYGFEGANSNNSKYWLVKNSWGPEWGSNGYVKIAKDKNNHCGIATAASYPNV
Nature of the data set: Inhibition of Cathepsin V (unknown origin) at 10 uM relative to control.

For data set [6], the system named is SARS-CoV-2. Nature of the data set: microbe, parasite or virus in culture. Conditions: Severe acute respiratory syndrome coronavirus 2, WIV04, Vero C1008.
Description: Antiviral activity against SARS-CoV-2 WIV04 infected in African green monkey Vero E6 pre-infected with cells for 1 hr followed by compound treatment and measured after 24 hrs by qRT-PCR analysis
Data set [7] addresses Replicase polyprotein 1ab (Severe acute respiratory syndrome coronavirus 2, UniProt P0DTD1). The data set is described as follows: Inhibition of recombinant SARS-CoV-2 3CLpro using MCA-AVLQSGFR-Lys(Dnp)-Lys-NH2 as substrate incubated for 1.5 hrs by fluorescence based analysis.
The nature of data set [8]: Cytotoxicity against african green monkey Vero E6 cells assessed as cell viability incubated for 48 hrs by CCK-8 assay. In kind it is toxicity, cell-based, Vero C1008. Conditions: chlorocebus sabaeus.
Data set [9] deals with Replicase polyprotein 1ab (Severe acute respiratory syndrome coronavirus 2) (UniProt P0DTD1). The data set is described as follows: Inhibition of recombinant SARS-CoV-2 3CLpro using MCA-AVLQSGFR-Lys(Dnp)-Lys-NH2 as substrate at 10 uM incubated for 1.5 hrs by fluorescence based analysis.
Data set [10] has the same target. Nature of the data set: Inhibition of SARS-CoV2 PLpro using Z-RLRGG-AMC as substrate at 10 uM preincubated for 30 mins followed by substrate addition and measured after 1.5 hrs by fluorescence based analysis. Conditions: time 2.0 hrs.
For data set [11], the species on record is Homo sapiens. Nature of the data set: Inhibition of human recombinant Cathepsin L-like protease using Z-FR-AMC as substrate at 10 uM preincubated for 30 mins followed by substrate addition and measured after 1.5 hrs by fluorescence based analysis. The note with it: time 2.0 hrs.
In data set [12] the target is Transmembrane protease serine 2 (Homo sapiens) (UniProt O15393). Nature of the data set: Inhibition of human recombinant TMPRSS2 using Boc-QAR-AMC as substrate at 10 uM preincubated for 30 mins followed by substrate addition and measured after 1.5 hrs by fluorescence based analysis. The note with it: time 2.0 hrs.
Data set [13] can be described thus: Inhibition of human recombinant Cathepsin L-like protease using Z-FR-AMC as substrate preincubated for 30 mins followed by substrate addition and measured after 1.5 hrs by fluorescence based analysis.
For data set [14], the system named is Severe acute respiratory syndrome coronavirus 2. The data set is described as follows: Inhibition of recombinant SARS-Cov-2 Cathepsin L-like protease by LC-MS/MS analysis.
The test system of data set [15] is Vero E6. Nature of the data set: Inhibition of Procathepsin L in african green monkey Vero E6 cells by LC-MS/MS analysis. In kind it is cell-based. Conditions: Chlorocebus aethiops.
Data set [16] in a line: Binding affinity to human recombinant Cathepsin L-like protease using Z-FR-AMC as substrate assessed as inhibition constant preincubated for 30 mins followed by substrate addition and measured after 1 hr by Morrison equation based analysis.
Data set [17] concerns the target T1, Cathepsin B. Nature of the data set: Binding affinity to Cathepsin B (unknown origin) assessed as inhibition constant by Morrison equation based analysis.
In the next data set the target is T3, Cathepsin L2 (Homo sapiens, UniProt O60911).
T3 sequence (O60911 whole entry): T2 sequence (whole entry)
Nature of the data set: Binding affinity to Cathepsin V (unknown origin) assessed as inhibition constant by Morrison equation based analysis.

Data set [18] has as its target Transmembrane protease serine 2 (Homo sapiens) (UniProt O15393). Nature of the data set: Inhibition of human recombinant TMPRSS2 using Boc-QAR-AMC as substrate at 10 uM preincubated for 30 mins followed by substrate addition and measured after 1.5 hrs by fluorescence based analysis relative to control. The note with it: time 2.0 hrs.
The species named for data set [19] is Homo sapiens. Nature of the data set: Inhibition of human recombinant Cathepsin L-like protease using Z-FR-AMC as substrate at 1 uM preincubated for 30 mins followed by substrate addition and measured after 1.5 hrs by fluorescence based analysis. The note with it: time 2.0 hrs.
Data set [20] in a line: Inhibition of recombinant Cathepsin L-like protease in african green monkey Vero E6 cells incubated for 2 hrs by pull down assay. In kind it is cell-based, Chlorocebus aethiops.
The test system of data set [21] is Vero E6. Nature of the data set: Binding affinity to Cathepsin L-like protease in african green monkey Vero E6 cells incubated for 2 hrs by mass spectrometric analysis. In kind it is cell-based. Conditions: Chlorocebus aethiops.
The subject of data set [22] is Vero E6. Nature of the data set: Binding affinity to Cathepsin L-like protease in african green monkey Vero E6 cells incubated for 2 hrs by Western blot analysis. In kind it is cell-based. The note with it: Chlorocebus aethiops. For orientation: A western blot detects proteins with antibodies after separation by electrophoresis.

Molecules are shown by their SMILES. Calls of active or inactive are those of the source. No cut-off for these calls is given here. Where only a bound is given, the exact number is not on record here.

Sequence of Transmembrane protease serine 2 (Homo sapiens) (O15393 1-255 limits assumed): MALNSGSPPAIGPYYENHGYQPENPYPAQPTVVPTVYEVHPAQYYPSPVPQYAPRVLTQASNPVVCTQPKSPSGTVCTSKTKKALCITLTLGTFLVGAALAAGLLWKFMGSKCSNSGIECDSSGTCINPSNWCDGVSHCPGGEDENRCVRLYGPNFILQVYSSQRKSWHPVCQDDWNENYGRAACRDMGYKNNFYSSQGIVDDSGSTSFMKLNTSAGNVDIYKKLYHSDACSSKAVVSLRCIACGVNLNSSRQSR
Sequence of Transmembrane protease serine 2 (Homo sapiens) (O15393 256-492 limits assumed): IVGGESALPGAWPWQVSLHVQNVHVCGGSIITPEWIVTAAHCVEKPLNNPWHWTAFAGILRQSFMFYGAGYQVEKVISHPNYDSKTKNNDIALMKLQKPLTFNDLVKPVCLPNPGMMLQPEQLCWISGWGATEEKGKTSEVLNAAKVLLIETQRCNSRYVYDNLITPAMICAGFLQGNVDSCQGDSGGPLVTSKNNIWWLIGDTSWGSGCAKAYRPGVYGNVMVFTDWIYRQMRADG

Turning to `O=C(N[C@@H](Cc1ccc(F)cc1)C(=O)N[C@@H](Cc1ccccc1)C(=O)CCl)c1cccc2ccccc12`, the IC50 in data set [1] came out at 0.27 nM. The outcome with SARS-CoV-2 [2] was Active. In addition, the inhibition result (on Trypsin (Homo sapiens); in data set [3]; on Cathepsin B [4]; in data set [5]) was “inactive” throughout. Further, the EC50 in the data set with SARS-CoV-2 [6] was determined as 260 nM.
In the case of `CC(C)C[C@H](NC(=O)/C=C/c1ccccc1)C(=O)N[C@H](C=O)Cc1ccccc1`, the 50% inhibitory concentration (IC50) is greater than 10000 nM in [7] and 22.6 nM in [13]. Besides, in data set [8], the cytotoxic concentration (CC50) at 48 h is greater than 100000 nM. Also, the inhibition entry (in [9]; in data set [10]; in data set [12]; at Trypsin (Homo sapiens); in data set [3]; on Cathepsin B [4]) was “inactive” each time. Further, in data set [5], the inhibition result was “inactive”. Further, the inhibition entry (in the data set filed under Homo sapiens [11]; in data set [14]; in the data set on Vero E6 [15]) was “Active” throughout. Besides, the result in the data set with SARS-CoV-2 [2] was Active. Moreover, the Ki in data set [16] was 1.31 nM; on Cathepsin B [17], 40.1 nM; at Cathepsin L2, 2.25 nM. Besides, in data set [18], the inhibition came to 100%. The midpoint of the response with SARS-CoV-2 [6], the EC50, lay at 310 nM.
In the case of `CC(C)C[C@@H](NC(=O)/C=C/c1ccccc1)C(=O)N[C@H](C=O)Cc1ccccc1`, the concentration for half-maximal inhibition (IC50) in data set [7] is greater than 10000 nM; in data set [13], greater than 1000 nM. In addition, in the data set filed under Homo sapiens [19], the inhibition result is “inactive”.
Consider `C#CCCCCOc1ccc(/C=C/C(=O)N[C@@H](CC(C)C)C(=O)N[C@H](C=O)Cc2ccccc2)cc1`, for which the EC50 in [20] came to 6210 nM. Further, the IC50 in [13] stood at 40.8 nM. The outcome in the data set on Vero E6 [21] and with Vero E6 [22] was Active.

One may read the IC50 as the concentration that inhibits the measured activity by half. Usually inhibition stands for the change of the read-out against control, counted positive when it falls. The term EC50 denotes the concentration needed to bring the measured effect to its halfway point. The CC50 is the concentration that lowers cell viability or growth by half. One may read the Ki as the equilibrium dissociation constant of an inhibitor or competing ligand from its target.
